Legend:
Assay in all cases: KINOMEscan (ScanMAX) kinase profiling
Assay type in all cases: binding
panel of 468 kinases [1] = target: T1, panel of 468 kinases (Homo sapiens, UniProt Q8IWQ3); conditions: BRSK2; 1 μM; read-out: % control
T1 construct: purchased KINOMEscan (ScanMAX) service
T1 sequence (Q8IWQ3 1-736): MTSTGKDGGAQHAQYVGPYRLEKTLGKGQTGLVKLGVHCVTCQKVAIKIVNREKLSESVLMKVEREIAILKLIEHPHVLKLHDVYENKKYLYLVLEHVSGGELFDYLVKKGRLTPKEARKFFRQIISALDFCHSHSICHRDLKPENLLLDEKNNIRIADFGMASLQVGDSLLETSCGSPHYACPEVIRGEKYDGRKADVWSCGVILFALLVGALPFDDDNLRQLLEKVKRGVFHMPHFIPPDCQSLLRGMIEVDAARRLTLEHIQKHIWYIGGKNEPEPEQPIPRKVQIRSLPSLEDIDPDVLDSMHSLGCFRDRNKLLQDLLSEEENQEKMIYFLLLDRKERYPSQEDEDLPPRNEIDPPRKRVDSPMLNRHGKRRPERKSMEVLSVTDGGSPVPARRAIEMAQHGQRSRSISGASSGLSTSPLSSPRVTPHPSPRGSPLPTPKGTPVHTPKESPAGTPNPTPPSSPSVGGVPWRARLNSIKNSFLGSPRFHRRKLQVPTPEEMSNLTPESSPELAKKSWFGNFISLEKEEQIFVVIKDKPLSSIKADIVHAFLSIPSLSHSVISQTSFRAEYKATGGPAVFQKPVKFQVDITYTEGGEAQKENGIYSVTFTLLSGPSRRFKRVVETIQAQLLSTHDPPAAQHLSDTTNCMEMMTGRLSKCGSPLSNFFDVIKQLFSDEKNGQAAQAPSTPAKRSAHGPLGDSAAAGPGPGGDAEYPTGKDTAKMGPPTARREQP

panel of 468 kinases [2] = target: T2, panel of 468 kinases (Homo sapiens, UniProt Q9Y2H1); conditions: NDR2; 1 μM; read-out: % control
T2 construct: purchased KINOMEscan (ScanMAX) service

panel of 468 kinases [3] = target: T3, panel of 468 kinases (Homo sapiens, UniProt O76039); conditions: CDKL5; 1 μM; read-out: % control
T3 construct: purchased KINOMEscan (ScanMAX) service
T3 sequence (O76039 1-960): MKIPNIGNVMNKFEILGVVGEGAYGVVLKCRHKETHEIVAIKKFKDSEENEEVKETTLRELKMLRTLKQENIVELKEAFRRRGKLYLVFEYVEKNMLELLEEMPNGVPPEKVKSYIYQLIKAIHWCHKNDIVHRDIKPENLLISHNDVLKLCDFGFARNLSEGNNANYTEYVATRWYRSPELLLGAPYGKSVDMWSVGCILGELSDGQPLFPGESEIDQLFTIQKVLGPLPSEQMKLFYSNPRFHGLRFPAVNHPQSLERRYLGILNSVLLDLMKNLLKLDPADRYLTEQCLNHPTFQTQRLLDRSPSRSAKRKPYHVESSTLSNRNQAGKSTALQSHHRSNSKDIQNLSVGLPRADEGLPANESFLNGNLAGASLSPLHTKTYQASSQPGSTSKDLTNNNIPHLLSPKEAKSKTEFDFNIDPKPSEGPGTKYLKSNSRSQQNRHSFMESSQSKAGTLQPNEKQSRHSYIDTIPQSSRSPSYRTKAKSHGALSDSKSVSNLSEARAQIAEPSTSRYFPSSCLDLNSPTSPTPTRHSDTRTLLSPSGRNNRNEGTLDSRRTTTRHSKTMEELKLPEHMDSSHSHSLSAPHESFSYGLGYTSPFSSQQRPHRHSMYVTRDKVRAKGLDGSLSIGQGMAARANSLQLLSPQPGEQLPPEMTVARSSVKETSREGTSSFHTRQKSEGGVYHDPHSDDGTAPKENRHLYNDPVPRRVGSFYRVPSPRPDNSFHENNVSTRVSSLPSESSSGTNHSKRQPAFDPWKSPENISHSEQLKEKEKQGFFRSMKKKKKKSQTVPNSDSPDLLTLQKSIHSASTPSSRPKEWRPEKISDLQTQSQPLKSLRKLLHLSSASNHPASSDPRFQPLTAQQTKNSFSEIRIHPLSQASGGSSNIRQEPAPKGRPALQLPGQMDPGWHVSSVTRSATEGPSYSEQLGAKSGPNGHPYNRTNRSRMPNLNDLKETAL

T2 sequence (Q9Y2H1 whole entry): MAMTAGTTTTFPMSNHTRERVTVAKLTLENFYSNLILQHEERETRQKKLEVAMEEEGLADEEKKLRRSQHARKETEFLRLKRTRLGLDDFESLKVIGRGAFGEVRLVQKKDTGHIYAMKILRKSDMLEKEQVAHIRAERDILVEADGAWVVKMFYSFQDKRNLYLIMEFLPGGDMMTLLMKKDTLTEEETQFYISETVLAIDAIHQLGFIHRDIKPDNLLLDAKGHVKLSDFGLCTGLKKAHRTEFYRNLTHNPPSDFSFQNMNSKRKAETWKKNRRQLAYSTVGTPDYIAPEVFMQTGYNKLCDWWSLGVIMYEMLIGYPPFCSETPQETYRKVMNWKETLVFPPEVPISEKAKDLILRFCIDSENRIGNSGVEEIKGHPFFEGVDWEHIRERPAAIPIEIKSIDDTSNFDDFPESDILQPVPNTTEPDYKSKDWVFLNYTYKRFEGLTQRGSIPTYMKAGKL

SMILES	remaining binding at 1 µM (panel of 468 kinases [1]) [%]	remaining binding at 1 µM (panel of 468 kinases [2]) [%]	remaining binding at 1 µM (panel of 468 kinases [3]) [%]
CNc1nc(Nc2ccc(C(=O)N3CCC(N4CCOCC4)CC3)c3c2OCO3)nc2[nH]cc(Cl)c12 [Compound 75, (7-((5-chloro-4-(methylamino)-7H-pyrrolo[2,3-d]pyrimidin-2-yl)amino)benzo[d][1,3]dioxol-4-yl)(4-morpholinopiperidin-1-yl)methanone]	83	100	83
CNc1nc(Nc2ccc(S(=O)(=O)N3CCC(N4CCOCC4)CC3)cc2OC)nc2[nH]cc(Cl)c12 [Compound 12, 5-chloro-N2-(2-methoxy-4-((4-morpholinopiperidin-1-yl)sulfonyl)phenyl)-N4-methyl-7H-pyrrolo[2,3-d]pyrimidine-2,4-diamine]	87	100	83
CNc1nc(Nc2ccc(P3(=O)CCN(C4CCOCC4)CC3)cc2OC)nc2[nH]cc(Cl)c12 [Compound 77, 4-(4-((5-chloro-4-(methylamino)-7H-pyrrolo[2,3-d]pyrimidin-2-yl)amino)-3-methoxyphenyl)-1-(tetrahydro-2H-pyran-4-yl)-1,4-azaphosphinane 4-oxide]	96	100	91
